This passage reports IC50 results from BindingDB's records for doi:10.1021/jm990236h (University of Michigan, 2000).

Some results are limits rather than exact numbers.

A short description of assay [1]: Antiviral activity was evaluated by RT (reverse transcriptase) activity in cells acutely infected with HIV-1.
Assay [2] is described as follows: Antiviral activity was evaluated by Reverse transcriptase activity in cells acutely infected with HIV-1.

Broadly, the IC50 is the midpoint of a concentration-inhibition curve. Higher therefore signals a need for much substance.

Regarding `CN1N=C(NC(=O)c2ccccc2)c2cn(C3O[C@H](CO)[C@@H](O)[C@H]3O)c3ncnc1c23` (stereo partly drawn), in assay [1], the IC50 was above 100000 nM. In turn, `CC(C)C(=O)NC1=NN(C)c2ncnc3c2c1cn3C1O[C@H](CO)[C@@H](O)[C@H]1O` (stereo partly drawn) yielded a half-inhibitory concentration (IC50) in assay [1] of 8000 nM. Regarding `CCCCCC(=O)NC1=NN(C)c2ncnc3c2c1cn3C1O[C@H](CO)[C@@H](O)[C@H]1O` (stereo partly drawn), half-maximal inhibition in assay [1] (IC50) required 350 nM. Turning to `CCCCCCCCCC(=O)NC1=NN(C)c2ncnc3c2c1cn3C1O[C@H](CO)[C@@H](O)[C@H]1O` (stereo partly drawn), in assay [2], the IC50 is 250 nM. `CCCCCCCCC(=O)NC1=NN(C)c2ncnc3c2c1cn3C1O[C@H](CO)[C@@H](O)[C@H]1O` (stereo partly drawn) came in with an IC50 in assay [2] of 800 nM. Molecule `CCCC(=O)NC1=NN(C)c2ncnc3c2c1cn3C1O[C@H](CO)[C@@H](O)[C@H]1O` (stereo partly drawn) displayed an IC50 in assay [1] of 500 nM. In assay [2], `CCCCCCCCCCCC(=O)NC1=NN(C)c2ncnc3c2c1cn3C1O[C@H](CO)[C@@H](O)[C@H]1O` (stereo partly drawn) returned an IC50 of 1000 nM. For the molecule `CCC(=O)NC1=NN(C)c2ncnc3c2c1cn3C1O[C@H](CO)[C@@H](O)[C@H]1O` (stereo partly drawn), the IC50 in assay [1] was 8400 nM. For the molecule `CC(=O)NC1=NN(C)c2ncnc3c2c1cn3C1O[C@H](CO)[C@@H](O)[C@H]1O` (stereo partly drawn), in assay [1], inhibition was half-maximal at 6800 nM (IC50). In turn, `CCCCC(=O)NC1=NN(C)c2ncnc3c2c1cn3C1O[C@H](CO)[C@@H](O)[C@H]1O` (stereo partly drawn) displayed an IC50 in assay [1] of 800 nM. `CCCCCCC(=O)NC1=NN(C)c2ncnc3c2c1cn3C1O[C@H](CO)[C@@H](O)[C@H]1O` (stereo partly drawn) returned an IC50 in assay [1] of 35 nM. For `CCCCCCCC(=O)NC1=NN(C)c2ncnc3c2c1cn3C1O[C@H](CO)[C@@H](O)[C@H]1O` (stereo partly drawn), the IC50 in assay [2] is 100 nM. As for `CN1N=C(NC(=O)C(C)(C)C)c2cn(C3O[C@H](CO)[C@@H](O)[C@H]3O)c3ncnc1c23` (stereo partly drawn), the IC50 in assay [1] is above 100000 nM.
